# Reference: patent publication US20230348487A1, “2-AMINOPYRIMIDINE COMPOUND AND PHARMACEUTICAL COMPOSITION THEREOF AND APPLICATION THEREOF” (GUANGZHOU SALUSTIER BIOSCIENCES CO., LTD., priority 2021, published 2023)
# Several values for one entry are separate records, joined by “and”; a condition that tells them apart may be missing. Identical values can stand only once. Like-named read-outs stand apart in the source and are kept apart here.
# Key:
# JAK1 = JAK1 (Homo sapiens (Human), UniProt P23458); experiment: Z′-Lyte kinase inhibitory activity test; type: biochemical; details: ATP concentration Km
# JAK1, sequence (P23458 whole entry): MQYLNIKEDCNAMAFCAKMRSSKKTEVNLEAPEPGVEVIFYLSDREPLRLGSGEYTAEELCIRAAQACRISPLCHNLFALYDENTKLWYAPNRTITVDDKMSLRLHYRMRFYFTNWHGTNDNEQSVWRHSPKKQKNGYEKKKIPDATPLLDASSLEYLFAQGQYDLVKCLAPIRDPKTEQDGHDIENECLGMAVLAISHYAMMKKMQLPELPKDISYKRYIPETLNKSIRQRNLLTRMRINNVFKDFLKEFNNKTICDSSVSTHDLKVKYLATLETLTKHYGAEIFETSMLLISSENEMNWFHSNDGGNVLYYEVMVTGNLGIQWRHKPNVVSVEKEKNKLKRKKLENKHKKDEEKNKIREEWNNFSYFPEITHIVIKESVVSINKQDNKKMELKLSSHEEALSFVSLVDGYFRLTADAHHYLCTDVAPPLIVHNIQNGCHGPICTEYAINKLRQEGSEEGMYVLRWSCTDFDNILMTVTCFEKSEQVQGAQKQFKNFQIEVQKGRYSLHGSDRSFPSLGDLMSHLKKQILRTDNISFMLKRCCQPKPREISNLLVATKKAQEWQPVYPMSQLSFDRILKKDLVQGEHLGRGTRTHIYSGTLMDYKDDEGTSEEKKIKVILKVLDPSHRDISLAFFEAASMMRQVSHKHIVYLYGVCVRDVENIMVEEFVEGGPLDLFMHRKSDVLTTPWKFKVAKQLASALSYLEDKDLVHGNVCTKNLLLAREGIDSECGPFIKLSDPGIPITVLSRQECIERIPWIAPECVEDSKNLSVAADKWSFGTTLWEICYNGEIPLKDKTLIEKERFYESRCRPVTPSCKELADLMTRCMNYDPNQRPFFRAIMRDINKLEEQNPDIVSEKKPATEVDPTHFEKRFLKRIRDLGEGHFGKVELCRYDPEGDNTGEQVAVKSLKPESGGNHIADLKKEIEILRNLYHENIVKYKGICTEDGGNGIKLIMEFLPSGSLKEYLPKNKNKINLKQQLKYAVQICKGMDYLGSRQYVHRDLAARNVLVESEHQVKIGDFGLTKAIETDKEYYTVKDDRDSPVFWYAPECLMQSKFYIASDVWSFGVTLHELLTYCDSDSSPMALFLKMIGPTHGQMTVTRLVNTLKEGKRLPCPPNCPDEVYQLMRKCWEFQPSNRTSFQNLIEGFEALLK
# Description: (§1) Test method: Firstly, test compounds were prepared into 10 mM stock solution with DMSO, and continuously diluted into 10 concentrations at a 3-fold gradient for later use. 5X reaction buffer was diluted with deionized water into 1×reaction buffer (50 mM HEPES pH 7.5, 0.01% Brij-35, 10 mM MgCl2, 1 mM EGTA), which was used to prepare a mixture of kinase and peptide substrate, as well as a phosphorylated peptide substrate solution. The kinase concentration was determined based on enzyme titration, and the final concentration of peptide substrate and phosphorylated peptide substrate was 2 μM. 5 μL of mixture substrate of kinase and peptide substrate was added to each well on the 384 well plate. Then 5 nL of the test compound (starting with a final concentration of 10 μM) was added with an Echo520 Sampler. […] An additional 100% phosphorylation well (5 μL phosphorylated peptide substrate solution), a 0% phosphorylated well (5 μL of a mixture of kinase and peptide substrate, without test compounds and ATP), and a 0% inhibitory well (5 μL of a mixture of kinase and peptide substrate and appropriate concentration of ATP) were set as control. Two repeats were set for each concentration. The above reaction system was incubated at 30° C. for 1.5 hours. […] 2.5 μL of the diluted mixture was added to each well and the system was incubated at 30° C. for another 1 hour. […] The substrate phosphorylation rate was obtained by calculating the ratio, and the activity of the kinase and the effect of the inhibitor on the kinase was further calculated. Every experiment was repeated at least three times.
# TYK2 = TYK2 (Homo sapiens (Human), UniProt P29597); experiment: Z′-Lyte kinase inhibitory activity test; type: biochemical; details: ATP concentration Km
# TYK2, sequence (P29597 whole entry): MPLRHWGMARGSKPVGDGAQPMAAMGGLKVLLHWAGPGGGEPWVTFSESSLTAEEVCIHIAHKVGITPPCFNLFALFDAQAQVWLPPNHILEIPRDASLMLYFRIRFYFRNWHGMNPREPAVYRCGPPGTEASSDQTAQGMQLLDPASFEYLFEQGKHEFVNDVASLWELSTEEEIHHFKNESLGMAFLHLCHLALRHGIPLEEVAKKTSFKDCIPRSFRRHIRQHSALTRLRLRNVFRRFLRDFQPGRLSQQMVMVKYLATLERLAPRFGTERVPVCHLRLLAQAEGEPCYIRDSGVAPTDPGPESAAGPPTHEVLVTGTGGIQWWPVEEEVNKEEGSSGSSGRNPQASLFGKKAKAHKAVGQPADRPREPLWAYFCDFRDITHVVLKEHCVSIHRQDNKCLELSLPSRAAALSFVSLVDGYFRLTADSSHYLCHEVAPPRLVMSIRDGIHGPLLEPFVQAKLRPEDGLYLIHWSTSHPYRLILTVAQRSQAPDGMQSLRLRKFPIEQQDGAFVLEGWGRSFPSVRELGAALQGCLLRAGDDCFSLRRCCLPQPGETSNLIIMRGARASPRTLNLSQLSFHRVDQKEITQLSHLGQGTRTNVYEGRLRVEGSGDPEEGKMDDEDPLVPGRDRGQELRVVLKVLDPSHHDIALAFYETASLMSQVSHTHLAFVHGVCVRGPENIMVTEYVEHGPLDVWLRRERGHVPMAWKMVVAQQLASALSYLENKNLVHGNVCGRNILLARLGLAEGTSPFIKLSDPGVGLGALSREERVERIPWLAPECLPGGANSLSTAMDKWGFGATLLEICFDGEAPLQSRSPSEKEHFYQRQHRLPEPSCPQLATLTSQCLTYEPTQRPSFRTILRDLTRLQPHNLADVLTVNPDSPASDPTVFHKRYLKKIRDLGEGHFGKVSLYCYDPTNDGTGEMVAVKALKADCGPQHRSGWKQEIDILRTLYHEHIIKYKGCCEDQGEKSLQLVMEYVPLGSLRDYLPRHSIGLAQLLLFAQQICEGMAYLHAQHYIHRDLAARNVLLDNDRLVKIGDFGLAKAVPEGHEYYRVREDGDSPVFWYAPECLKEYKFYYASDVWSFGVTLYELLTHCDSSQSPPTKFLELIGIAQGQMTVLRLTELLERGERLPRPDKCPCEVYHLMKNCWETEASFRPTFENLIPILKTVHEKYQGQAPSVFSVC
# Description: as §1
# JAK2 = JAK2 (Homo sapiens (Human), UniProt O60674); experiment: Z′-Lyte kinase inhibitory activity test; type: biochemical
# JAK2, sequence (O60674 whole entry): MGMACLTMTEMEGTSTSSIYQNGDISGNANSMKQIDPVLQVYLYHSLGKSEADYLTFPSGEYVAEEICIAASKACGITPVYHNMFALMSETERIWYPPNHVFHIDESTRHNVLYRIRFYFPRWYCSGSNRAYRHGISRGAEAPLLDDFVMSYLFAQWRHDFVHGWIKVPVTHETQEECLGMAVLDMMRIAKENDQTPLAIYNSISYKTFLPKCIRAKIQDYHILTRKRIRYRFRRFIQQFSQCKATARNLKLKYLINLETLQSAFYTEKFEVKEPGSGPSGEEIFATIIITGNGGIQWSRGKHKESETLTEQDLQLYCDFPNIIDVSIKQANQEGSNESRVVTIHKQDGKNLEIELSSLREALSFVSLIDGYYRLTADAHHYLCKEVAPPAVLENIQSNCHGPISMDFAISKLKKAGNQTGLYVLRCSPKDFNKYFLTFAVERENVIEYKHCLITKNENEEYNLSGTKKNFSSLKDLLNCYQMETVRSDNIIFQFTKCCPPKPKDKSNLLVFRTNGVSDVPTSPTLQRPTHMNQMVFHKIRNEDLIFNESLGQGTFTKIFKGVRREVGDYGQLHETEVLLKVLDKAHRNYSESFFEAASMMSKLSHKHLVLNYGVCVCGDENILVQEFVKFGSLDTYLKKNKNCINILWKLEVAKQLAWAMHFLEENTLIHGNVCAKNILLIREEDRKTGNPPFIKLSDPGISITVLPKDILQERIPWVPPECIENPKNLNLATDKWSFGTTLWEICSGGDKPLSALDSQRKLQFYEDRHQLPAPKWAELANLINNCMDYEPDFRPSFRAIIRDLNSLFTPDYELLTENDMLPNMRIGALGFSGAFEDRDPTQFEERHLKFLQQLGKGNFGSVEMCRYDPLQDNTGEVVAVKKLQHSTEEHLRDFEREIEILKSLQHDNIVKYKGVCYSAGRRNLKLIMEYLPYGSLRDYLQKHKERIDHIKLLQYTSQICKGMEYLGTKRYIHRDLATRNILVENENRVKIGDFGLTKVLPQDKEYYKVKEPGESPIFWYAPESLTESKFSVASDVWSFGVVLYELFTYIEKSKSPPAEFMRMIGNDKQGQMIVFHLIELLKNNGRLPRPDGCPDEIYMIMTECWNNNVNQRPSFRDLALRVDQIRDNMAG
# Description: as §1
# JAK3 = JAK3 (Homo sapiens (Human), UniProt P52333); experiment: Z′-Lyte kinase inhibitory activity test; type: biochemical; details: for JAK3 kinase inhibitory activity and selectivity (in words): summary of Table 3, activity maintained at ATP 1 mM
# JAK3, sequence (P52333 whole entry): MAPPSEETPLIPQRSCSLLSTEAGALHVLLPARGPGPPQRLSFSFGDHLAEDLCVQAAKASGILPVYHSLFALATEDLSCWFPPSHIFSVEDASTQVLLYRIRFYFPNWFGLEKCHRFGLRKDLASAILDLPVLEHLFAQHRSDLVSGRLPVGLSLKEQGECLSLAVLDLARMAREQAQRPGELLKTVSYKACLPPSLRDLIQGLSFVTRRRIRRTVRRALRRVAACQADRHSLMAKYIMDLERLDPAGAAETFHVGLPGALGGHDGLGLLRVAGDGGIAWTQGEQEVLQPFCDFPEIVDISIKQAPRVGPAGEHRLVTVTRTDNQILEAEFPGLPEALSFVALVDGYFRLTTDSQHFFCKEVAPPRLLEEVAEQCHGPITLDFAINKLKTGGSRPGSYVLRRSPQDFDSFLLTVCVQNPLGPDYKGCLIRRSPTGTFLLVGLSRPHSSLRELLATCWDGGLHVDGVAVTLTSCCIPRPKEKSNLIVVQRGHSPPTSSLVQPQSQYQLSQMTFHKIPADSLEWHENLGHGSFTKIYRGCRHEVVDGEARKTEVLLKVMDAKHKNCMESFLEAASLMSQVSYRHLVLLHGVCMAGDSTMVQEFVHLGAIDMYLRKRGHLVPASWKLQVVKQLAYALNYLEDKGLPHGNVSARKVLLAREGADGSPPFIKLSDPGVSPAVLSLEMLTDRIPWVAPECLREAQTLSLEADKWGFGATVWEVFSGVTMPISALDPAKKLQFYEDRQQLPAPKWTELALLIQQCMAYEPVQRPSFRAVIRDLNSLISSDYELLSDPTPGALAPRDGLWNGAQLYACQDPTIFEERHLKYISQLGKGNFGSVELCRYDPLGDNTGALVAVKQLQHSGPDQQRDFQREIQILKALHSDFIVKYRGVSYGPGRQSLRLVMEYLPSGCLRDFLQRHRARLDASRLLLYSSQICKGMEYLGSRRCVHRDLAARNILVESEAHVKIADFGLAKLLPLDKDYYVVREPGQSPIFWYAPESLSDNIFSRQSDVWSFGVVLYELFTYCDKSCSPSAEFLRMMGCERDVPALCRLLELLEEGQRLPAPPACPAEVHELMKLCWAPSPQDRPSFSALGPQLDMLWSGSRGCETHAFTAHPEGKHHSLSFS
# Description: as §1
# [1] = tested on: human T lymphocyte leukemia cell line HuT78; experiment: CCK-8 in vitro proliferation inhibition; type: cell-based; details: read-out: Inhibitory activity (IC50) on cell proliferation, HUT78
# Description: (§2) Cell lines: human chronic myeloid leukemia cell line K562, human acute myeloid leukemia cell line U937, human T lymphocyte leukemia cell line HuT78, and human T lymphoblastic lymphoma cell line Jurkat. Cells were purchased from the Chinese Academy of Sciences Stem Cell Bank or ATCC.
# (§3) […] were cultured overnight and suspended cells were directly stimulated with drugs. […] Two repeats were set for each concentration, with a final volume of 200 μL. […] The absorbance values at 450 nm and 650 nm were measured using a microplate reader, and the increment Z (A450-A650) was derived. The inhibitory rate of drugs on cell growth was calculated by GraphPad Prism 8.0.0 through the following formula:
# (§4) Inhibition rate (%)(ODcontrol−ODdosing)/ODcontrol×100%
# (§5) The half inhibitory concentration (IC50) was calculated. Every experiment was repeated at least three times.
# [2] = tested on: human acute myeloid leukemia cell line U937; experiment: CCK-8 in vitro proliferation inhibition; type: cell-based; details: read-out: Inhibitory activity (IC50) on cell proliferation, U937
# Description: as §2, §3, §4, §5
# [3] = tested on: human chronic myeloid leukemia cell line K562; experiment: CCK-8 in vitro proliferation inhibition; type: cell-based; details: read-out: Inhibitory activity (IC50) on cell proliferation, K562
# Description: as §2, §3, §4, §5
# [4] = tested on: human T lymphoblastic lymphoma cell line Jurkat; experiment: CCK-8 in vitro proliferation inhibition; type: cell-based; details: 72 hours, read-out: Inhibitory activity (IC50) on cell proliferation, JURKAT
# Description: as §2, §3, §4, §5
SMILES,IC50 (JAK1) [µM],IC50 (TYK2) [µM],IC50 (JAK2) [µM],IC50 (JAK3),JAK3 kinase inhibitory activity and selectivity (in words) (JAK3),IC50 ([1]; 72 hours) [µM],IC50 ([2]; 72 hours) [µM],IC50 ([3]; 72 hours) [µM],IC50 [4] [µM],IC50 (JAK2; ATP concentration Km) [µM],IC50 (JAK3; ATP concentration 1 mM) [µM],IC50 (JAK3; ATP concentration Km) [µM],"IC50 ([1]; Homo sapiens, HuT78, 72 hours) [µM]","IC50 ([2]; Homo sapiens, U-937, 72 hours) [µM]","IC50 ([3]; Homo sapiens, K562, 72 hours) [µM]","IC50 ([4]; Homo sapiens, Jurkat) [µM]","IC50 (JAK3; ATP concentration 1 mM, in μM) [µM]"
C=CC(=O)Nc1cccc(Nc2ncc(Cl)c(O[C@@H]3CO[C@H]4[C@@H]3OC[C@H]4O)n2)c1 [LS 5-77],0.556,0.0939,1.4,0.00125 µM and 0.00239 µM,strong and selective JAK3 kinase inhibitory activity,0.447,0.106,0.103,1.66,,,,,,,,
"C=CC(=O)Nc1cc(Nc2ncc(Cl)c(O[C@@H]3CO[C@H]4[C@@H]3OC[C@H]4O)n2)ccc1N1CCC(N2CCN(C)CC2)CC1 [LS 5-12, N-(5-((5-chloro-4-(((3R,3aR,6R, 6aR)-6-hydroxyhexahydrofurano[3,2-b]furan-3-yl)oxygen)pyrimidin-2-yl)amino)-2-(4-(4-methylpiperazin-1-yl)piperidin-1-yl)phenyl) acrylamide]",1.54,0.369,1.03,,strong and selective JAK3 kinase inhibitory activity,0.0317,0.0359,0.29,0.434,,,,,,,,
C=CC(=O)Nc1cc(Nc2ncc(Cl)c(O[C@@H]3CO[C@H]4[C@@H]3OC[C@H]4O)n2)ccc1N(C)CCO [LS 5-74],1.12,0.226,,,strong and selective JAK3 kinase inhibitory activity,,,,,1.52,0.00737,0.00426,0.448,0.181,0.0918,3.95,
C=CC(=O)Nc1cc(Nc2ncc(Cl)c(O[C@@H]3CO[C@H]4[C@@H]3OC[C@H]4O)n2)ccc1N1CCC2(CCN(C)CC2)CC1 [LS 5-91],0.895,0.233,,,strong and selective JAK3 kinase inhibitory activity,,,,,1.06,0.0206,0.0055,0.0192,0.00578,0.0709,0.0341,
CN1CCN(C2CCN(c3ccc(Nc4ncc(Cl)c(O[C@@H]5CO[C@H]6[C@@H]5OC[C@H]6O)n4)cc3)CC2)CC1 [LS 4-145],0.471,0.301,,,,,,,,0.981,4.29,0.066,2.39,0.516,0.822,9.03,
C=CC(=O)Nc1cc(Nc2ncc(Cl)c(O[C@@H]3CO[C@H]4[C@@H]3OC[C@H]4OC)n2)ccc1N1CCC(N2CCN(C)CC2)CC1 [LS 6-16],0.533,0.906,0.967,0.00812 µM and 0.0125 µM,,0.121,0.024,0.191,0.136,,,,,,,,
C=CC(=O)Nc1cc(Nc2ncc(Cl)c(O[C@@H]3CO[C@H]4[C@@H]3OC[C@H]4O)n2)ccc1N1C[C@H]2C[C@@H]1CN2C [LS 5-154],0.8,0.188,,,strong and selective JAK3 kinase inhibitory activity,,,,,0.524,0.00159,0.00156,0.717,0.034,2.41,0.347,
C/C=C/C(=O)Nc1cc(Nc2ncc(Cl)c(O[C@@H]3CO[C@H]4[C@@H]3OC[C@H]4O)n2)ccc1N1CCC(N2CCN(C)CC2)CC1 [LS 5-72],2.67,0.43,,,,,,,,1.54,4.38,0.0905,0.927,0.524,2.76,2.78,
C=CC(=O)Nc1cc(Nc2ncc(Cl)c(O[C@@H]3CO[C@H]4[C@@H]3OC[C@H]4O)n2)ccc1N1CCOCC1 [LS 5-66],1.11,0.335,,,strong and selective JAK3 kinase inhibitory activity,,,,,1.16,0.0144,0.0059,1.09,0.0875,1.86,2.64,
C=CC(=O)Nc1cc(Nc2ncc(Cl)c(O[C@@H]3CO[C@H]4[C@@H]3OC[C@H]4O)n2)ccc1N1CCN(CC)CC1 [LS 5-143],0.481,0.166,,,strong and selective JAK3 kinase inhibitory activity,,,,,0.362,0.00217,0.00219,0.0753,0.012,0.216,0.128,
CN(C)C/C=C/C(=O)Nc1cc(Nc2ncc(Cl)c(O[C@@H]3CO[C@H]4[C@@H]3OC[C@H]4O)n2)ccc1N1CCC(N2CCN(C)CC2)CC1 [LS 5-81],4.88,0.279,,,,,,,,2.37,4.19,0.057,1.06,0.227,5.98,3.05,
C=CC(=O)Nc1cc(Nc2ncc(Cl)c(O[C@@H]3CO[C@H]4[C@@H]3OC[C@H]4O)n2)ccc1N1CCC(N(C)C)CC1 [LS 5-102],1.04,0.241,,,strong and selective JAK3 kinase inhibitory activity,,,,,0.437,0.00268,0.0025,0.0924,0.0211,0.866,0.29,
COc1cc(Nc2ncc(Cl)c(O[C@@H]3CO[C@H]4[C@@H]3OC[C@H]4O)n2)ccc1N1CCC(N2CCN(C)CC2)CC1 [LS 4-143],0.618,0.421,,,,,,,,0.541,,0.0474,3.38,0.739,0.354,6.34,> 10
